Measurements from patent US5488049A, “Method of treating learning and memory disorders using benzothiadiazide derivatives as nootropic agents” (FIDIA - Georgetown Institute for the Neuro-Sciences, priority 1993, dated 1996).
Entries after “also recorded” stand apart in the source; their conditions may differ. One block for each molecule: values may come before it.

Assays:
[1] = tested on: rats; test: Water maze: drug action on alprazolam-disrupted learning behavior in rats; format: in vivo, rat
Experimental: Rats (male 250 g b.w.) were trained two days, once a day, in maze A (See insert A). […] Rats were exposed to a new maze configuration (Maze B) in 4 successive trials 15, 30, 45, and 60 min after the i.p. injections.
The water maze apparatus was adapted from Kant et al., (16), and consists of three concentric squares placed inside a 5 ft plastic pool (FIG. 6). The walls of the maze are 50 cm in height and are constructed from black opaque plastic to allow for tracking of the animal with an overhead camera. The alleys between the walls are 16 cm wide. In the center of each wall there is a removable doorway. The opening of doorways allows for the construction of mazes with an increasing number of potential error possibilities. (See diagram for Maze A and Maze B, FIG. 6). The maze is located in a room 10'×15' at constant temperature (18° C.) adjacent to the vivarium. The room is illuminated with overhead lights which also serve as spatial cues. Additional spatial cues are provided by the position of the investigator and a number of small white x's placed within specific locations upon the walls of the maze. The maze is filled with water (18°)C. to a depth of 25 cm.
Seven days prior to drug studies, rats were tested in Maze A (forced maze) on two consecutive days. Pretesting with the "forced" maze enabled the assessment of the animals' general motor, sensory and motivational abilities, and facilitated the exclusion of those animals unable to meet pretesting criteria. Performance was assessed by determining either swim time, errors committed, or path length measured with a computerized recording device. Errors are defined as whole body entry into alleys not leading directly to the exit platform (i.e., shaded portions in FIG. 6). Rats were excluded from the study if their swim path length and/or number of errors were two standard deviations above the mean […] of the entire group. During the first two trials, the rats were placed into the center of the maze and given a maximum of 180 secs to find the "exit platform" located at the "finish" (FIG. 6). The time required, the number of errors, and the path length were recorded for each trial. […] Rats meeting the criteria were randomly divided into groups. On the day of the experiment, a single trial was run (Maze A) in order to establish a baseline of performance. Following drug administration, the rats were again tested once on Maze A to establish a baseline of post-treatment performance. Following an additional interatrial interval of 30 min., the rats were tested on Maze B.
In these experiments, rats were trained in Maze B 15, 30, 45 and 60 min. after drug injection.

[2] = tested on: rats; test: as above; format: in vivo, rat; details: oral 5 mg/kg
[3] = tested on: GABAA receptors; test: Preliminary electrophysiological and biochemical radiolabeled binding studies on GABAA receptors
[4] = Gross animal behavior; details: at effective doses
[5] = tested on: Pacata monkeys; test: Preliminary experiments in Pacata monkeys: working memory; format: in vivo
Excerpt: The present IDRAcompounds are useful for enhancing both short-term memory, long-term memory, and cognitive performance in man. […]. As a result, the compounds of the present invention are useful as therapeutic agents in memory impairment, e.g., due to toxicant exposure, brain injury, epilepsy, mental retardation in children and senile dementia, including Alzheimer's disease.

[6] = Entry into the brain (inferred from in vivo activity); details: inferred ("presumably") from in vivo activity or lack of it
[7] = tested on: kainate-activated current; test: Selectivity: ionic current elicited by 20 μM kainate; format: cell-based, rat
Experimental: (§1) Young rats (12-16 days old) were decapitated and the brains quickly removed and placed in ice-cold Ringer solution. Thin slices of hippocampus (250 μm) were then cut with a vibratome slicer (Lancer, St. Louis, Mo.) and kept in Ringer solution at 37° C. until use. The experiments were carried out at room temperature with the slice totally submerged in a 1 ml volume recording chamber and under continuous perfusion with Ringer solution at a rate of 6 ml/min using an upright Hoffman modulation contrast microscope (Carl Zeiss, Germany) equipped with a 40×water immersion objective.
(§2) Media and drug application. The external Ringer solution contained (in mM): NaCl 120; KCl 3.1; CaCl2 2; MgCl2 1; KH2 PO4 1; NaHCO3 26; glucose 2.7; and it was continuously bubbled with 95% O2 and 5% CO2. Patch pipettes were filled with a solution containing (in mM): K-gluconate 140; MgCl2 1; ATP.Mg 2; EGTA 0.5; HEPES-KOH 10, pH 7.2. All the drugs under investigation were applied through the recording chamber perfusion system via parallel inputs having a common entry into the chamber. Agonist application was attained using two different systems that allowed a slow or a rapid solution change. Slow solution changes were used during recordings in whole-cell configuration and were obtained by exchanging the solution of the recording chamber within a few seconds. Fast solution changes were obtained with the use of the Y-shaped tubing method that allows complete exchange of solution in less than 10 ms, and is described in detail by Murase et al. (1989).
(§3) Ionic currents in whole-cell configuration and outside-out excised membrane patches were monitored using the patch clamp technique (15).

[8] = tested on: AMPA receptor; test: Fast application with double barrel pipette: AMPA receptor desensitization in outside-out patches from CAl hippocampal pyramidal neurons; format: cell-based, rat; details: comparison compound, lower dose than IDRA 21, concentration not given
Experimental: as §1, §2
Briefly, a polyethylene tubing (1 mm i.d.) is bent in a U-shaped, and another fine polyethylene tubing (50 μi.d.) and 10 mm length) is inserted into a small hole in the U-tubing making the tip of the Y-tubing. Solutions are fed to the Y-tubing by gravity, and negative pressure facilitates exchange of the solution. The tip of the Y-tubing is positioned 100 μm from the cell investigated, and upon opening and closing of a valve that controls the negative pressure, it was possible to respectively change rapidly and apply a number of different test solutions. This method was used to apply agonists to excised outside-out membrane patches. More rapid drug applications were used to apply agonists to excised outside-out membrane patches, and were obtained through a double-barrelled pipette positioned close to the recording pipette containing the membrane patch. […] The agonist was applied for a period of 150 ms and the time necessary for a complete exchange of the solution was less than 1 ms as measured at the opening of a patch pipette containing different dilutions of the drugs under study. […]
Ionic currents in whole-cell configuration and outside-out excised membrane patches were monitored using the patch clamp technique (15). […]

[9] = tested on: EPSCs elicited in CAl pyramidal neurons; test: Excitatory postsynaptic currents (EPSCs) in CAl pyramidal neurons in hippocampal slices on stimulation of Schaffer collateral afferents; format: cell-based, rat; details: in vitro; compared with (+) IDRA 21
Experimental: as §1, §3
Traces were filtered at 3 KHz (-3 dB, 8-pole, lowpass Bessel filter, Frequency Devices), and stored in an LSI 11/73 computer (INDEC System, Sunnyvale, Calif.) after digitization (10 KHz) with a Data Translation analog to digital converter. Decay time constants of EPSC and glutamate-activated currents were determined from exponential fitting with the 11/73 system by using an entirely automated least-squares procedures (see Vicini and Schuetze, 1985, for further details). This method uses a Simplex algorithm (Caceci and Cacheris, 1984) to fit the data to either a single or double exponential equation of the form I(t)=If exp(-t/tauf)+Is exp(-t/taus), where If and Is are the amplitudes of the sIPSC fast and slow components, and tauf and taus are their respective decay time constants. Peak amplitudes were measured at the absolute maximum of the currents, taking into account the noise of the baseline and noise around the peak. Rise times were measured as the time elapsed from 20 to 80% of the peak amplitude of the response.
The action of nootropic drugs on the excitatory postsynaptic currents (EPSCs) elicited in CAl pyramidal neurons in hippocampal slices was investigated by stimulation of the Schaffer collateral afferents.

Structure (SMILES): CC1Nc2ccc(Cl)cc2S(=O)(=O)N1 (single isomer, unassigned; (+)) [(+) IDRA 21]
disruptive action of alprazolam ([1]; discussion statement): antagonizes the disruptive action of alprazolam
dose dependence of learning and memory enhancing effect ([1]; rat, in vivo): dose-dependent
duration of learning and memory enhancing effect ([1]; rat, in vivo): > 1 h
biological activity of enantiomers (summary) ([1]; summary statement): biologically active
potency vs racemate in preventing alprazolam-induced amnesia [2]: significantly more potent than (±) IDRA; also recorded: more potent that (±) IDRA 21
prevention of alprazolam-induced amnesia (enantiomers) [2]: active in preventing alprazolam-induced amnesia in rats
direct action on GABAA receptors [3]: fails to act directly on GABAA receptors
effect on gross animal behavior (exploratory behavior, stereotypy, ataxia, posture) [4]: no changes in exploratory behavior, stereotypy, ataxia, posture, etc.
working memory enhancement [5]: very potent in enhancing working memory
brain uptake [6]: taken up by the brain in a sufficient quantity to produce learning and memory enhancing effects

brain uptake [6]: fail to enter the brain
Structure (SMILES): NS(=O)(=O)c1cc2c(cc1Cl)NC(C1CC3C=CC1C3)NS2(=O)=O (stereo not shown) [cyclothiazide, reference compound]
antagonism of alprazolam amnesic effect ([1]; doses equimolar to IDRA 21 / (+) IDRA 21): unable to antagonize alprazolam-induced impairment of learning behavior
effect on kainate-activated current ([7]; 40 μM compound, 20 μM kainate): increased the current
effect on kainate responses at doses that decreased AMPA desensitization ([7]; all doses that decrease/inhibit AMPA desensitization): potently potentiated kainate responses
removal of glutamate-induced desensitization [8]: completely removed the desensitization induced by glutamate
efficacy in increasing excitatory synaptic strength in CAl pyramidal neurons [9]: at least as efficacious as (+) IDRA 21
